What was measured:
[1] = test system: DS cells; assay: DS lymphoma cell growth, MTT assay; format: cell-based, human; settings: day 3; IFN-alpha 1,000 u/ml
Procedure: (§1) For cell proliferation assays, cells were grown in 10% FCS culture medium containing various amounts of IFNs and/or sodium stibogluconate in 96 well plates and cultured at 37° C. for 3 or 6 days as indicated. The numbers of viable cells in proliferation assays were determined by MTT assays as described in Phatak et al., J. Immunol. 167, 3391 (2001).

[2] = test system: HEY cells; assay: HEY ovarian cancer cell growth, MTT assay; format: cell-based, human; settings: 100 μg/ml, day 6
Procedure: (§2) NIH3T3 (Yi, et al., Blood 85, 87 (1995)), WM9 (Forsberg, et al., Proc. Nat. Acad Sci. USA 90, 393 (1993)), DU145 (Mickey, et al., Cancer Res. 37, 4049 (1977)), LoVo (Drewinko, et al., Cancer Res. 36, 467 (1976)), HEY (Buick, et al., Cancer Res. 45, 3668 (1985)), U251 (Yoshida, et al., Cancer 50, 410 (1982)), A549 (Giard, et al., J. Natl. Cancer Inst. 51, 1417 (1973)) and SK-N-SH (Helson, et al., Cancer Res. 35, 2594 (1975)) cell lines have been described and were cultured in RPMI 1640 supplemented with 10% fetal calf serum (FCS). For measurement of sodium stibogluconate effects on cell growth in vitro, cells were cultured in the absence (−) or presence (+) of various amounts of sodium stibogluconate for 6 days with viable cells quantified by MTT assays (Mosmann, J. Immunol. Methods 65, 55 (1983)). Percentages of growth inhibition by sodium stibogluconate were calculated (.+−.x

[3] = target: T1, SHP-1 (Mus musculus, UniProt P29351); assay: Reversibility of SHP-1 inhibition (washing of bead-bound GST/SHP-1); format: biochemical; settings: pre-incubated 4° C. 30 minutes, washed 3 times
T1 construct: made in house
Description: The beads were then either subjected to in vitro PTPase assays or washed 3 times in Tris buffer then subjected to in vitro PTPase assays.

[4] = test system: WM9 transfectants; assay: Growth of WM9 transfectants, MTT assay; format: cell-based, human; settings: 50 or 100 μg/ml, 6 days
Procedure: as §2
The effects of sodium stibogluconate on intracellular PTPases were assessed using NIH3T3 or WM9 transfectants. NIH3T3 or WM9 cells were transfected with the pBabepuro vector (V) or pBabepuro expression constructs of Flag-tagged PRLs using Lipofectamine (BRL) following the manufacturer's procedures. […]

[5] = test system: NB4 cells; assay: NB4 cell cycle analysis; format: cell-based, human; settings: 3 days; sodium stibogluconate 250 μg/ml, ATRA 1 μM
Procedure: The cell cycle was analyzed by flow cytometry after 3 days of culture of NB4 cells in the absence or presence of sodium stibogluconate (250 µg/ml) or ATRA (1 μM). Briefly, the cells were fixed in cold ethanol and incubated for 30 minutes at 4° C. in the dark with a solution of 50 […], 1 mg/ml RNase and 0.1% NP-40. Analysis was performed immediately after staining using the CELLFIT program (Becton Dickinson, Mountain View, Calif.).

[6] = target: T2, PRL-3 (Homo sapiens, UniProt O75365); assay: In vitro PTPase assay, recombinant PRL-3; format: biochemical; settings: 10 μg/ml, pre-incubation 30 or 60 minutes
T2 construct: GST (N); made in house; host or cells: DHSa (DH5a) bacteria
Description: Sodium stibogluconate, suramin, sodium orthovanadate and GST fusion protein of SHP-1 have been described previously (Pathak et al., J. Imumol. 167, 3391 (2001)). Meglumine antimonate was obtained from Aventis. cDNAs of human PRL-1, PRL-2 and PRL-3 coding region were derived by RT-PCR from H9 cells (Safai, et al., Lancet 1, 1438 (1984)) and inserted in frame into the pGEX vector. cDNA of PRL-1R86 was generated by recombinant DNA technique using PRL-1 cDNA as template following established procedures (Jiao, et al., Mol. Cell. Biol. 16, 6985 (1996)). […]
In vitro PTPase assays were used to determine the effects of compounds on recombinant PTPases, following established procedures using a synthetic phosphotyrosine peptide or DiFMUP as the substrate (Pathak et al., J. Imumol. 167, 3391 (2001)). […] PTPase activity of individual reactions was measured by adding 100 µL of malachite green solution (UBI) and then quantifying the amounts of free phosphate cleaved by the PTPase from the peptide substrate by spectrometry (OD660 nm). […] Relative PTPase activities were calculated based on the formula: (PTPase activity in the presence of an inhibitory compound/PTPase activity in the absence of the compound)× 100%. […]

[7] = test system: WM35 cells; assay: WM35 melanoma cell growth; format: cell-based, human
Procedure: as §1

T1 sequence (P29351 whole entry): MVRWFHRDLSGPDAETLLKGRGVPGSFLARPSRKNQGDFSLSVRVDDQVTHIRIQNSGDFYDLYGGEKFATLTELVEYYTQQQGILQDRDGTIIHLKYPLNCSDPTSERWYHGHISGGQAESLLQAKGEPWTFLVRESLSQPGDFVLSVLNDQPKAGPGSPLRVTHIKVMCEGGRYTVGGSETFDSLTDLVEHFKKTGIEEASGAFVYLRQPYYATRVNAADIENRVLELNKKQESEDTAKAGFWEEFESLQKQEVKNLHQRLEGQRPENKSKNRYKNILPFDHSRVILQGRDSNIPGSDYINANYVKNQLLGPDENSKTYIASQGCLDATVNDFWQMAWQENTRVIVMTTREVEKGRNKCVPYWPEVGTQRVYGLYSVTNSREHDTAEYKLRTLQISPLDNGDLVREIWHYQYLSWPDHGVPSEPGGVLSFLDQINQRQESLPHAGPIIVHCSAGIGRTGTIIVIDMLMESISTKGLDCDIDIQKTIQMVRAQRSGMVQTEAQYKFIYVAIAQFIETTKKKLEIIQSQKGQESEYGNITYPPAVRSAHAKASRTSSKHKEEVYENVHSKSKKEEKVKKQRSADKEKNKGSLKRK
T2 sequence (O75365 whole entry): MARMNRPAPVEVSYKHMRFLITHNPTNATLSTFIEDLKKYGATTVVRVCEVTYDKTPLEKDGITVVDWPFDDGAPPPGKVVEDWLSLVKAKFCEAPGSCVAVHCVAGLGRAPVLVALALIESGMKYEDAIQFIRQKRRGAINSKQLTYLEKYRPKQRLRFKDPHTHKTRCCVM

With `O.O.O.O.O.O.O.O.O.O=C([O-])[C@@H]1[O][Sb]2([O-])([O][Sb]34([OH])[O][C@H]([C@H](O)CO)[C@H]([O]3)[C@H](C(=O)[O-])[O]4)[O][C@H]([C@H](O)CO)[C@@H]1[O]2.[Na+].[Na+].[Na+]` [sodium stibogluconate] the “activity against DS cells” value [1] was “modest activity”, the “killing of HEY cells” value [2] was “near-complete cell killing” and the “inhibition of GST/SHP-1 after washing” value [3] was “not affected by washing”. The “growth of R86 cells” value [4] was “only modest growth inhibition”, the “NB4 cell cycle effect” value [5] was “significant increase of cells at S phase” and the “inactivation of PRL-3” value [6] was “nearly complete inactivation”. The “effect on WM35 cells” value [7] was “minimally affected”.
